Laboratory results: PMC9982066, “Inhibition of Ehrlichia chaffeensis infection by cell-permeable macrocyclic peptides that bind type IV secretion effector Etf-1” (PNAS Nexus, 2023)
Starred links: 1 amine or outer side, 2 acyl side, 3 side chain; linkers in the order of their positions; H or OH if unused. Positions of bridges follow the written chain, without caps; N, C: chain ends. Non-standard residues stand in square brackets, D forms with d. Residues, ends and D or L forms follow the SMILES beside them. Trimesoyl = O=C(c1cc(C(=O)[*:2])cc(C(=O)[*:3])c1)[*:1]; d2Nal = N[C@H](Cc1ccc2ccccc2c1)C(=O)O; Dap = NC[C@H](N)C(=O)O

How the values were obtained:
Etf-1 [1] = biological target: T1, Etf-1 (Ehrlichia chaffeensis, UniProt Q2GG12); test: FP assay of Etf-1 binding with FAM-labeled peptides
E. chaffeensis = E. chaffeensis infection of THP-1 cells, qPCR of 16S rRNA gene normalized to human actin; type: cell-based, Ehrlichia chaffeensis
Etf-1 [2] = biological target: T1, Etf-1; test: immunofluorescence of native Etf-1 localization in E. chaffeensis-infected RF/6A cells; type: cell-based; conditions: 2 days
Method: Fig. 7. […] RF/6A cells were seeded onto a coverglass in a 12-well plate for 1 h, and infected with E. chaffeensis (Ech) at ∼30 MOI. […] Cells were fixed in 4% PFA and labeled with rabbit anti-Etf-1 IgG and AF488-conjugated goat anti-rabbit secondary antibody in PGS for 1 h each at RT. DAPI was used to label both host-cell nuclei and Ehrlichia DNAs (pseudocolored in green), and E. chaffeensis organisms were shown as green-colored, round to pleomorphic cocci (arrowhead in panel B) that further clustered as spherical morulae. Thin arrows, E. chaffeensis-containing inclusion; open arrows, filamentous-shaped mitochondria. DeltaVision microscope. […] (D) Percentage of E. chaffeensis inclusions colocalized with Etf-1 were quantified by counting ∼20 cells per group from three independent experiments.
For mitochondria localization analysis, RF/6A cells were seeded onto a cover glass in a 12-well plate for 3 h, then infected with E. chaffeensis at ∼30 MOI. […] Host-cell and Ehrlichial DNAs were stained with 300 nM DAPI, and fluorescence with differential interference contrast images were observed and captured with a DeltaVision deconvolution microscope (Applied Precision, Issaquah, WA, USA). Percentages of Etf-1 protein colocalization with macrocyclic peptides or E. chaffeensis inclusions were quantified by counting 10–20 cells per group from three independent experiments.

BECN1 binding to Etf-1 = test: streptavidin magnetic beads pull-down of BECN1 with biotin-Etf-1, Western blot; type: biochemical; conditions: 10 µM peptide

T1 sequence (Q2GG12 entry or part of it): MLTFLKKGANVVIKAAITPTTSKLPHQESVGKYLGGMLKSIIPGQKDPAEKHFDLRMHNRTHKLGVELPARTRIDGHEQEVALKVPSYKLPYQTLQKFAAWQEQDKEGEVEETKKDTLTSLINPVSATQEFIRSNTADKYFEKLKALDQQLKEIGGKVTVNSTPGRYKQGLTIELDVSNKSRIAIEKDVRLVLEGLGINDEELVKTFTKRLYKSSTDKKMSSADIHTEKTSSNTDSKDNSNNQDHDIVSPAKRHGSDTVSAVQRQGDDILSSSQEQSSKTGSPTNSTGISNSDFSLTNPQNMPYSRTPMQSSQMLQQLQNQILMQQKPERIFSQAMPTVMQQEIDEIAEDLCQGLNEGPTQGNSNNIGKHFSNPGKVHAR

CC(C)C[C@H]1NC(=O)[C@H](CO)NC(=O)[C@H]2CCCN2C(=O)[C@H](CCC(N)=O)NC(=O)[C@H](Cc2c[nH]cn2)NC(=O)[C@H](Cc2ccc(O)cc2)NC(=O)c2cc3cc(c2)C(=O)NC[C@H](NC1=O)C(=O)N[C@@H](Cc1ccccc1)C(=O)N[C@H](Cc1ccc2ccccc2c1)C(=O)N[C@H](CCCNC(=N)N)C(=O)N[C@@H](CCCNC(=N)N)C(=O)N[C@H](CCCNC(=N)N)C(=O)N[C@@H](CCCNC(=N)N)C(=O)N[C@H](C(N)=O)CNC3=O [Peptide B7, TMA-Tyr-His-Gln-pro-Ser-leu-Dap-Phe-nal-arg-Arg-arg-Arg-Dap] (YHQ[dP]S[dL][Dap]F[d2Nal][dR]R[dR]R[Dap]-NH2; linker N-7-14 via Trimesoyl)
Kd (Etf-1 [1]): 6.5 ± 0.7 µM
inhibition of E. chaffeensis infection (E. chaffeensis; 10 μM, 2 days, vs DMSO control): significantly inhibited
dose dependence of inhibition of E. chaffeensis infection (E. chaffeensis; 1, 5, and 10 μM): dose-dependent manner
localization of Etf-1 to E. chaffeensis inclusions (Etf-1 [2]; 10 μM from 3 h pi): significantly inhibited the localization
effect on mitochondrial localization of native Etf-1 (Etf-1 [2]; 10 μM): did not affect
disruption of BECN1 binding to Etf-1 (BECN1 binding to Etf-1; compared to DMSO control): disrupted BECN1 binding to Etf-1
BECN1/Etf-1 Ratio (BECN1 binding to Etf-1; band intensities, DMSO control set as 1, Fig. 8B): 0.20
